In patent US20070254907A1, “COMPOSITIONS AND METHODS FOR CONTROLLING INFESTATION” (HATCHTECH PTY LTD, priority 2003, published 2007):
Several values for one entry are separate records, joined by “and”; a condition that tells them apart may be missing. Identical values can stand only once. Like-named read-outs stand apart in the source and are kept apart here.

Tests used:
Plutella xylostella eggs = experiment: whole plant or invertebrate; assay type: in vivo
Method: The ovicidal efficacy of 2-acetyl-1-tetralone was also tested against Plutella eggs.

lice eggs = experiment: whole plant or invertebrate; assay type: in vivo; details: for Activity class 0 = inactive 1 = low 2 = med 3 = high: listed as of 10 mM; for inhibition at 10000 µM: Pediculus humanus, read-out: Ovicidal activity %; for H (number of eggs successfully hatched) / Ph (number of eggs partly hatched): per replicate, concentration not given
[1] = tested on: Lice (L) and Plutella (P) eggs; experiment: whole plant or invertebrate; details: read-out: Ovicidal activity %
head lice eggs = experiment: Head lice egg hatching with formulated compound; assay type: in vivo; details: 20 mM formulation, 10 minutes exposure, n=10 eggs
Method: Gravid female lice were permitted to lay eggs. The eggs were counted, inspected under a light microscope and all eggs that appeared undamaged were allocated to one of two treatment groups. One group was exposed to 5′-dimethyl-2,2′-dipyridyl in a formulation, while the second group was exposed to the formulation only. The protocol was as follows:
Treatments: 5'-dimethyl-2,2'dipyridyl (20mM) n=10
Vehicle control only n=10
Exposure time: 10 minutes
Wash time: 1 minute @˜37° C.
Incubation: All eggs were placed at 31° C. in a humid incubator and monitored for signs of development specifically of the eye and subsequent hatching, see Table 21.

[2] = tested on: Helicoverpa armigera eggs; experiment: Egg hatching of Helicoverpa armigera; details: for Number hatched / Number unhatched / % Inhibition: Table 13; for % Inhibition: relative to the control (100% MeOH)
[3] = tested on: Lice (L) and Plutella (P) eggs; details: Lice (L) and Plutella (P)
[4] = Plutella xylostella, Plutella (P), 10 mM, read-out: Ovicidal activity %
[5] = Table 14, 10 mM, dipped approximately 2 seconds, eggs on fine cloth
[6] = Plutella (P), listed as of 10 mM
[7] = Plutella (P), listed as of 1 mM
[8] = Table 10, eggs laid on cloth, 1 mM
[9] = Table 10, eggs laid on cloth, 10 mM
[10] = Table 11, eggs laid on parafilm, 1 mM
[11] = Table 11, eggs laid on parafilm, 10 mM
[12] = Plutella xylostella, read-out: Ovicidal activity %
[13] = Table 17, eggs laid on cloth, 1 mM in 1% diethoxyglycol

## NCC(O)c1ccccc1 (centres unmarked) [2-Amino-1-phenyl ethanol]
Plutella xylostella eggs; in vivo
  Ovicidal activity %: 0.00%

## Cc1cc(C)cc(C(=O)CC(=O)c2cc(C)cc(C)c2)c1 [1,3-Bis-(3,5-dimethyl-phenyl)-propane-1,3-dione]
Plutella xylostella eggs; [4]
  inhibition at 10000 µM: 0%
Plutella xylostella eggs; in vivo
  Logit calc pLD50: 0.7
  Pref pLD50: <2

## c1ccc(CNCc2ccccn2)nc1 [Di(2-picolyl) amine]
Lice eggs; Lice (L)
  Activity class 0 = inactive 1 = low 2 = med 3 = high: 0 (A pLD50 value less than 2 is considered inactive (Class 0))
Lice eggs
  inhibition at 10000 µM: 0%

## c1cnc2ccc3ncccc3c2c1 [4,7-phenanthroline]
[1]
  inhibition at 10000 µM: 0%

## Cc1nc(-c2nc(C)c(C)[nH]2)[nH]c1C [2,2′-Bis(4,5-dimethylimidazole)]
Lice eggs; Lice (L), 10 mM
  Ovicidal activity %: 0.00%
Lice eggs; Lice (L)
  Activity class 0 = inactive 1 = low 2 = med 3 = high: 0 (A pLD50 value less than 2 is considered inactive (Class 0))

## Cc1ccc(-c2ccc(C)cn2)nc1 [Ha44]
Head lice eggs; Day 1
  Stage of development: number of eggs with eye development: 1 eye development
  Stage of development: number of eggs with no eye dev.: 9 no eye dev.
Head lice eggs; Day 4
  Stage of development: number of eggs hatched: 1 hatched
  Stage of development: number of eggs with eye development: 1 eye development
  Stage of development: number of eggs with no eye dev.: 8 no eye dev.
Head lice eggs; Day 5
  Stage of development: number of eggs with eye development: 1 eye development
  Stage of development: number of eggs with no eye dev.: 8 no eye dev.
Head lice eggs; Day 6
  Stage of development: number of eggs with eye development: 1 eye development
  Stage of development: number of eggs with no eye dev.: 8 no eye dev.
Head lice eggs; Day 7
  Stage of development: number of eggs with eye development: 1 eye development
  Stage of development: number of eggs with no eye dev.: 8 no eye dev.
Head lice eggs; Day 12
  Stage of development: number of eggs with eye development: 1 eye development
  Stage of development: number of eggs with no eye dev.: 8 no eye dev.

## COC(=O)CN [Glycine methyl ester]
Plutella xylostella eggs; [4]
  inhibition at 10000 µM: 0%
Plutella xylostella eggs; in vivo
  Logit calc pLD50: 0.7
  Pref pLD50: <2

## c1ccc(-c2ccc3ccccc3n2)nc1 [2-(2-pyridinyl)quinoline]
Plutella xylostella eggs; 10 mM
  effect on egg hatching of Plutella xylostella (words): able to inhibit egg hatching
Plutella xylostella eggs; [4]
  inhibition at 10000 µM: 100%
Plutella xylostella eggs; Plutella xylostella, Table 14, 10 mM, relative to control (100% ETOH), read-out: % Inhibition
  inhibition at 10000 µM: 96%
Plutella xylostella eggs; [5]
  Number hatched: 2
  Number unhatched: 56
Plutella xylostella eggs; in vivo
  Logit calc pLD50: 3.3
  Pref pLD50: >2

## CCCC(N)CO [D-L-2-Amino-1-pentanol]
Plutella xylostella eggs; Plutella (P), 10 mM
  Ovicidal activity %: 0.00%
Plutella xylostella eggs; [6]
  Activity class 0 = inactive 1 = low 2 = med 3 = high: 0 (A pLD50 value less than 2 is considered inactive (Class 0))
Plutella xylostella eggs; in vivo
  Logit calc pLD50: 0.7
  Pref pLD50: <2

## Cc1ccnc(-c2cc(C)ccn2)c1 [4,4′-dimethyl-2,2′-dipyridyl]
Plutella xylostella eggs; 10 and 1 mM
  effect on egg hatching of Plutella xylostella (words): significantly inhibit egg hatching
Plutella xylostella eggs; Plutella (P), 0.1 mM
  Ovicidal activity %: 65.00%
Plutella xylostella eggs; Plutella (P), 1 mM
  Ovicidal activity %: 100.00%
Plutella xylostella eggs; Plutella (P), 10 mM
  Ovicidal activity %: 100.00%
Plutella xylostella eggs; [7]
  Activity class 0 = inactive 1 = low 2 = med 3 = high: 3 (a pLD50 greater than 4 is considered strongly active (Class 3))
Plutella xylostella eggs; [8]
  Number hatched: 0
  Number unhatched: 30
Plutella xylostella eggs; Table 10, eggs laid on cloth, 1 mM, relative to controls
  % Inhibition: 100%
Plutella xylostella eggs; [9]
  Number hatched: 0
  Number unhatched: 36
Plutella xylostella eggs; Table 10, eggs laid on cloth, 10 mM, relative to controls
  % Inhibition: 100%
Plutella xylostella eggs; [10]
  Number hatched: 10
  Number unhatched: 107
Plutella xylostella eggs; Table 11, eggs laid on parafilm, 1 mM, relative to controls
  % Inhibition: 91%
Plutella xylostella eggs; [11]
  Number hatched: 0
  Number unhatched: 139
Plutella xylostella eggs; Table 11, eggs laid on parafilm, 10 mM, relative to controls
  % Inhibition: 100%
[2]; 1 mM
  effect on egg hatching of Helicoverpa armigera (words): significant inhibition of egg hatching
  Number hatched: 23
  Number unhatched: 29
  % Inhibition: 66%
[2]; 10 mM
  effect on egg hatching of Helicoverpa armigera (words): significant inhibition of egg hatching
  Number hatched: 8
  Number unhatched: 43
  % Inhibition: 84%

## O=C(NO)c1ccccc1 [Benzohydroxaminic acid]
Plutella xylostella eggs; Plutella (P), 10 mM
  Ovicidal activity %: 0.00%
Plutella xylostella eggs; [6]
  Activity class 0 = inactive 1 = low 2 = med 3 = high: 0 (A pLD50 value less than 2 is considered inactive (Class 0))

## O=C(CC(=O)c1cc(Cl)ccc1O)c1ccccc1 [1-(5-Chloro-2-hydroxy-phenyl)-3-phenyl-propane-1,3-dione]
[1]
  inhibition at 10000 µM: 0%

## O=C(CC(=O)c1cccnc1)c1cccnc1 [1,3-dipyridin-3-yl-propane-1,3-dione]
Plutella xylostella eggs; [4]
  inhibition at 10000 µM: 0%
Plutella xylostella eggs; in vivo
  Logit calc pLD50: 0.7
  Pref pLD50: <2

## O=C(CC(=O)c1ccccc1)c1ccccc1 [Dibenzoyl methane]
Plutella xylostella eggs; [12]
  inhibition at 10000 µM: 90%

## N[C@@H]1CCCC[C@H]1O (relative stereo) [Trans-2-aminocyclohexanol]
Plutella xylostella eggs; [12]
  inhibition at 10000 µM: 0%

## O=C(CC(=O)c1ccc(Cl)cc1)c1ccccc1 [1-(4-Chloro-phenyl)-3-phenyl-propane-1,3-dione]
Lice eggs; Lice (L), 10 mM
  inhibition at 10000 µM: 0%

## c1ccc2nc(-c3ccc4ccccc4n3)ccc2c1 [2,2′-biquinoline]
[1]
  inhibition at 10000 µM: 0%

## O=C(CC(=O)C(F)(F)F)c1ccccc1 [4,4,4-Trifluoro-1-phenyl-butane-1,3-dione]
[1]
  inhibition at 10000 µM: 0%

## c1ccc(-c2cc(N3CCOCC3)c3ccccc3n2)nc1 [4-Morpholin-4-yl-2-pyridin-2-yl-quinoline]
[1]
  inhibition at 10000 µM: 0%

## COc1ccc(C(=O)CC(=O)c2ccc(OC)cc2)cc1 [1,3-Bis-(4-methoxy-phenyl)-propane-1,3-dione]
Plutella xylostella eggs; [4]
  inhibition at 10000 µM: 0%
Plutella xylostella eggs; in vivo
  Logit calc pLD50: 0.7
  Pref pLD50: <2

## Cc1ccccn1 [2-Picoline]
Lice eggs; Lice (L)
  Activity class 0 = inactive 1 = low 2 = med 3 = high: 0 (A pLD50 value less than 2 is considered inactive (Class 0))
Lice eggs; Lice (L), 10 mM
  inhibition at 10000 µM: 0%

## CC(=O)NO [Acetohydroxamic acid]
Plutella xylostella eggs; [4]
  inhibition at 10000 µM: 0%
Plutella xylostella eggs; in vivo
  Logit calc pLD50: 0.7
  Pref pLD50: <2

## CC(C)(C)c1ccc(C(=O)CC(=O)c2ccc(C(C)(C)C)cc2)cc1 [1,3-Bis-(4-tert-butyl-phenyl)-propane-1,3-dione]
Plutella xylostella eggs; [4]
  inhibition at 10000 µM: 0%
Plutella xylostella eggs; in vivo
  Logit calc pLD50: 0.7
  Pref pLD50: <2

## c1ccc(Cc2ccccn2)cc1 [2-benzyl-pyridine]
[1]
  inhibition at 10000 µM: 0%

## CC(=O)C1CCCCC1=O (centres unmarked) [2-Acetylcyclohexanone]
Plutella xylostella eggs; [4]
  inhibition at 10000 µM: 0%
Plutella xylostella eggs; in vivo
  Logit calc pLD50: 0.7
  Pref pLD50: <2

## c1ccc(-c2ccccn2)nc1 [2,2′-dipyridyl]
Lice eggs; all time points examined (24-120 hr post egg laying)
  lice egg hatching: completely inhibited
Lice eggs; treated 24 hr post egg laying
  H (number of eggs successfully hatched): 0
  Ph (number of eggs partly hatched): 0
Lice eggs; treated 48 hr post egg laying
  H (number of eggs successfully hatched): 0
  Ph (number of eggs partly hatched): 0
Lice eggs; treated 72 hr post egg laying
  H (number of eggs successfully hatched): 0
  Ph (number of eggs partly hatched): 0
Lice eggs; treated 96 hr post egg laying
  H (number of eggs successfully hatched): 1 and 0 (2×)
  Ph (number of eggs partly hatched): 0
Lice eggs; treated 120 hr post egg laying
  H (number of eggs successfully hatched): 0
  Ph (number of eggs partly hatched): 0
[3]; 10 mM
  Ovicidal activity %: 100.00%
[3]; listed as of 10 mM
  Activity class 0 = inactive 1 = low 2 = med 3 = high: 1 (a pLD50 value between 2 and 3 is considered weakly active (Class 1))

## COC(=O)c1ccc(-c2ccc(C(=O)OC)cn2)nc1 [2,2′ Bipyridinyl-5,5′-dicarboxylic acid dimethyl ester]
Lice eggs; Lice (L)
  Activity class 0 = inactive 1 = low 2 = med 3 = high: 0 (A pLD50 value less than 2 is considered inactive (Class 0))
Lice eggs; Lice (L), 10 mM
  inhibition at 10000 µM: 0%

## CC(=O)CC(=O)c1ccccc1 [Benzoylacetone]
Plutella xylostella eggs; Plutella xylostella, Plutella (P), 1 mM, read-out: Ovicidal activity %
  inhibition at 1000 µM: 0%
Plutella xylostella eggs; [4]
  inhibition at 10000 µM: 90%

## c1ccc(-c2cccc(-c3ccccn3)n2)nc1 [2,2′,6,2″-terpyridine]
Lice eggs; Lice (L), 10 mM
  Ovicidal activity %: 0.00%
Lice eggs; Lice (L)
  Activity class 0 = inactive 1 = low 2 = med 3 = high: 0 (A pLD50 value less than 2 is considered inactive (Class 0))
Plutella xylostella eggs; 1 mM, 1% diethoxyglycol
  inhibition of Plutella egg hatching: complete inhibition
Plutella xylostella eggs; Plutella (P), 1 mM
  Ovicidal activity %: 100%
Plutella xylostella eggs; [7]
  Activity class 0 = inactive 1 = low 2 = med 3 = high: 3 (a pLD50 greater than 4 is considered strongly active (Class 3))
Plutella xylostella eggs; [13]
  Number hatched: 0
  Number unhatched: 46
Plutella xylostella eggs; Table 17, 1 mM, relative to control (1% diethoxyglycol)
  % Inhibition: 100%

## CCOC(=O)CNC(C)=O [Ethyl-acetaimidoacetate]
Plutella xylostella eggs; Plutella (P), 10 mM
  Ovicidal activity %: 0.00%
Plutella xylostella eggs; [6]
  Activity class 0 = inactive 1 = low 2 = med 3 = high: 0 (A pLD50 value less than 2 is considered inactive (Class 0))

## c1ccc(Nc2ccccn2)nc1 [2,2-dipyridylamine]
Plutella xylostella eggs; Plutella (P), 1 mM
  Ovicidal activity %: 0.00%
Plutella xylostella eggs; Plutella (P), 10 mM
  Ovicidal activity %: 100%
Plutella xylostella eggs; [7]
  Activity class 0 = inactive 1 = low 2 = med 3 = high: 0 (A pLD50 value less than 2 is considered inactive (Class 0))
Plutella xylostella eggs; [6]
  Activity class 0 = inactive 1 = low 2 = med 3 = high: 1 (a pLD50 value between 2 and 3 is considered weakly active (Class 1))
